According to ChEMBL document CHEMBL4507282, “Data for DCP probe BI-1950” (2021):

Legend:
[1] = target: Serine/threonine-protein kinase PRP4 homolog (Homo sapiens) (UniProt Q13523); settings: Compound concentration 1000.0 nM
[2] = target: Tyrosine-protein kinase Lck (Homo sapiens) (UniProt P06239); settings: Compound concentration 1000.0 nM
[3] = target: Serine/threonine-protein kinase OSR1 (Homo sapiens) (UniProt O95747); settings: Compound concentration 1000.0 nM
[4] = target: RAC-gamma serine/threonine-protein kinase (Homo sapiens) (UniProt Q9Y243); settings: Compound concentration 1000.0 nM
[5] = target: Tyrosine-protein kinase BTK (Homo sapiens) (UniProt Q06187); settings: Compound concentration 1000.0 nM
[6] = target: BMP-2-inducible protein kinase (Homo sapiens) (UniProt Q9NSY1); settings: Compound concentration 1000.0 nM
[7] = target: D(1A) dopamine receptor (Homo sapiens) (UniProt P21728); settings: Compound concentration 10.0 uM
[8] = target: Aurora kinase A (Homo sapiens) (UniProt O14965); settings: Compound concentration 1000.0 nM
[9] = target: Mitogen-activated protein kinase 8 (Homo sapiens) (UniProt P45983); settings: Compound concentration 1000.0 nM
[10] = target: Tyrosine-protein kinase JAK1 (Homo sapiens) (UniProt P23458); settings: Compound concentration 1000.0 nM
[11] = target: Mitogen-activated protein kinase kinase kinase 13 (Homo sapiens) (UniProt O43283); settings: Compound concentration 1000.0 nM
[12] = target: Calcium/calmodulin-dependent protein kinase type 1G (Homo sapiens) (UniProt Q96NX5); settings: Compound concentration 1000.0 nM
[13] = target: Serine/threonine-protein kinase 26 (Homo sapiens) (UniProt Q9P289); settings: Compound concentration 1000.0 nM
[14] = target: Ribosomal protein S6 kinase alpha-4 (Homo sapiens) (UniProt O75676); settings: Compound concentration 1000.0 nM
[15] = target: Proto-oncogene tyrosine-protein kinase receptor Ret (Homo sapiens) (UniProt P07949); settings: Compound concentration 1000.0 nM
[16] = target: Serine/threonine-protein kinase TAO2 (Homo sapiens) (UniProt Q9UL54); settings: Compound concentration 1000.0 nM
[17] = target: Ephrin type-A receptor 7 (Homo sapiens) (UniProt Q15375); settings: Compound concentration 1000.0 nM
[18] = target: Serine/threonine-protein kinase Sgk1 (Homo sapiens) (UniProt O00141); settings: Compound concentration 1000.0 nM
[19] = target: Serine/threonine-protein kinase 16 (Homo sapiens) (UniProt O75716); settings: Compound concentration 1000.0 nM
[20] = target: GABA-A receptor; anion channel (Rattus norvegicus) (UniProt O09028+P15431+P18506+P18508+P19969+P20236+P23574+P23576+P28471+P28473+P30191+P62813+P63079+P63138+Q91ZM7+Q9ES14); settings: Compound concentration 10.0 uM
[21] = target: 5-hydroxytryptamine receptor 1D (Homo sapiens) (UniProt P28221); settings: Compound concentration 10.0 uM
[22] = target: Cyclin-dependent kinase 14 (Homo sapiens) (UniProt O94921); settings: Compound concentration 1000.0 nM
[23] = target: Receptor tyrosine-protein kinase erbB-2 (Homo sapiens) (UniProt P04626); settings: Compound concentration 1000.0 nM
[24] = target: Protein-tyrosine kinase 6 (Homo sapiens) (UniProt Q13882); settings: Compound concentration 1000.0 nM
[25] = target: Testis-specific serine/threonine-protein kinase 3 (Homo sapiens) (UniProt Q96PN8); settings: Compound concentration 1000.0 nM
[26] = target: LIM domain kinase 1 (Homo sapiens) (UniProt P53667); settings: Compound concentration 1000.0 nM
[27] = target: Mitogen-activated protein kinase kinase kinase 12 (Homo sapiens) (UniProt Q12852); settings: Compound concentration 1000.0 nM
[28] = target: cAMP-dependent protein kinase catalytic subunit beta (Homo sapiens) (UniProt P22694); settings: Compound concentration 1000.0 nM
[29] = target: Atypical kinase COQ8A, mitochondrial (Homo sapiens) (UniProt Q8NI60); settings: Compound concentration 1000.0 nM
[30] = target: Serine/threonine-protein kinase tousled-like 2 (Homo sapiens) (UniProt Q86UE8); settings: Compound concentration 1000.0 nM
[31] = target: Megakaryocyte-associated tyrosine-protein kinase (Homo sapiens) (UniProt P42679); settings: Compound concentration 1000.0 nM
[32] = target: Death-associated protein kinase 3 (Homo sapiens) (UniProt O43293); settings: Compound concentration 1000.0 nM
[33] = target: Calcium/calmodulin-dependent protein kinase type II subunit delta (Homo sapiens) (UniProt Q13557); settings: Compound concentration 1000.0 nM
[34] = target: Calcium/calmodulin-dependent protein kinase type 1B (Homo sapiens) (UniProt Q6P2M8); settings: Compound concentration 1000.0 nM
[35] = target: Cyclin-dependent kinase 17 (Homo sapiens) (UniProt Q00537); settings: Compound concentration 1000.0 nM
[36] = target: Testis-specific serine/threonine-protein kinase 1 (Homo sapiens) (UniProt Q9BXA7); settings: Compound concentration 1000.0 nM
[37] = target: Serine/threonine-protein kinase pim-1 (Homo sapiens) (UniProt P11309); settings: Compound concentration 1000.0 nM
[38] = target: Ephrin type-A receptor 4 (Homo sapiens) (UniProt P54764); settings: Compound concentration 1000.0 nM
[39] = target: SNF-related serine/threonine-protein kinase (Homo sapiens) (UniProt Q9NRH2); settings: Compound concentration 1000.0 nM
[40] = target: Rho-associated protein kinase 1 (Homo sapiens) (UniProt Q13464); settings: Compound concentration 1000.0 nM
[41] = target: Phosphatidylinositol 4-kinase beta (Homo sapiens) (UniProt Q9UBF8); settings: Compound concentration 1000.0 nM
[42] = target: Serine/threonine-protein kinase 32B (Homo sapiens) (UniProt Q9NY57); settings: Compound concentration 1000.0 nM
[43] = target: Serine/threonine-protein kinase NIM1 (Homo sapiens) (UniProt Q8IY84); settings: Compound concentration 1000.0 nM
[44] = target: D(1B) dopamine receptor (Homo sapiens) (UniProt P21918); settings: Compound concentration 10.0 uM

Atypical kinase COQ8A, mitochondrial (Homo sapiens), sequence (Q8NI60 163-647 limits assumed): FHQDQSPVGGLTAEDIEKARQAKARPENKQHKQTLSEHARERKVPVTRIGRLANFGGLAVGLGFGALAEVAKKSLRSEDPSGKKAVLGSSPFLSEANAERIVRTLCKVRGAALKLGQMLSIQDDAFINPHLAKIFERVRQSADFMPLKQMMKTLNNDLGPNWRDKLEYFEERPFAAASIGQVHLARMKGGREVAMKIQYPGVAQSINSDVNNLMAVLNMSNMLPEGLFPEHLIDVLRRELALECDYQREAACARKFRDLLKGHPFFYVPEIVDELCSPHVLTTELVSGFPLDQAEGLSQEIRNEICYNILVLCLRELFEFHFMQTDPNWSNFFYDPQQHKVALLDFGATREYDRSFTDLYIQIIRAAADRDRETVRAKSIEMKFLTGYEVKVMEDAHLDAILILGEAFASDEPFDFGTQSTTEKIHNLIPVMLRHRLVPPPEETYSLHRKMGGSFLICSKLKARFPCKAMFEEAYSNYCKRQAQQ
LIM domain kinase 1 (Homo sapiens), sequence (P53667 whole entry, looked up, the tested form may be a part): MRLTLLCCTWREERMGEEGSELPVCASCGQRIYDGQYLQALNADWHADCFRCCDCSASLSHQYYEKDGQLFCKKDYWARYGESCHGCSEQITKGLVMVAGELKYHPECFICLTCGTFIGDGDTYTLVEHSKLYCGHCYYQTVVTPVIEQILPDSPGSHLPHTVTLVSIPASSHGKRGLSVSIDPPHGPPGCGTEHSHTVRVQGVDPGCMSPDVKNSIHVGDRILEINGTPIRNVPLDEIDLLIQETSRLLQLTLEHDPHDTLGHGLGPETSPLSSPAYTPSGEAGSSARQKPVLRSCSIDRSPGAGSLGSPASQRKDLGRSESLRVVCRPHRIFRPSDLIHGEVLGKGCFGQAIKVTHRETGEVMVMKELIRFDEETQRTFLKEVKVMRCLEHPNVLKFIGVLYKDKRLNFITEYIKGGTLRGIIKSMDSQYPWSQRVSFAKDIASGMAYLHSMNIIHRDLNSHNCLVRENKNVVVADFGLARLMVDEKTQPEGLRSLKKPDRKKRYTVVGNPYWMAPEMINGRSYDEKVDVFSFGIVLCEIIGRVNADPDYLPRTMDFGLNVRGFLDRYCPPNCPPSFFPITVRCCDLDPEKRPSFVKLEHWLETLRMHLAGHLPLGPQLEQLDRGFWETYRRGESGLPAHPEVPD
Calcium/calmodulin-dependent protein kinase type II subunit delta (Homo sapiens), sequence (Q13557 whole entry): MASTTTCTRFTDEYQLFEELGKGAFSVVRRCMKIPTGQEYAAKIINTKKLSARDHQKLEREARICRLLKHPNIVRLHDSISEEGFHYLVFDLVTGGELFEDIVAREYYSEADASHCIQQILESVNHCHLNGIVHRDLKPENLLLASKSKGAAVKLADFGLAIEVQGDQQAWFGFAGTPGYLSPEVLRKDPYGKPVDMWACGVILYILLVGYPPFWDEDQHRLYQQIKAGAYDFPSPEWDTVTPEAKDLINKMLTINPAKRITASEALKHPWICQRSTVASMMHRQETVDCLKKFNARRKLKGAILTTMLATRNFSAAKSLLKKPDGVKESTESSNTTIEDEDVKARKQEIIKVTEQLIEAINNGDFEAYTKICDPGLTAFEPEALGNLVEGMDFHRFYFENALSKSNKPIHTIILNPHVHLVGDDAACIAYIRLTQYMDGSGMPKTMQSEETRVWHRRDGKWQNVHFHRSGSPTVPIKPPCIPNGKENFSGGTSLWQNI
Serine/threonine-protein kinase Sgk1 (Homo sapiens), sequence (O00141 whole entry): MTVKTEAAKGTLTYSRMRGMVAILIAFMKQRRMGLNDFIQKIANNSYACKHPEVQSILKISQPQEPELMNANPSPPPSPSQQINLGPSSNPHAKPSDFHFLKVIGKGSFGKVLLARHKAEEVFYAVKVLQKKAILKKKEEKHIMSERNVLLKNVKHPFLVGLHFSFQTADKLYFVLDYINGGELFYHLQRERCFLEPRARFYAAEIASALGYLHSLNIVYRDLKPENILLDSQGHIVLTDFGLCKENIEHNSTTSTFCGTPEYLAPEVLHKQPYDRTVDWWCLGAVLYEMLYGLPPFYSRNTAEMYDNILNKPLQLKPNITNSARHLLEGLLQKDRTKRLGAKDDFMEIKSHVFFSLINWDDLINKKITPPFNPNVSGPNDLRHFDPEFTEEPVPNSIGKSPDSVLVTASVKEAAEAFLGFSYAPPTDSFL
Rho-associated protein kinase 1 (Homo sapiens), sequence (Q13464 2-1354 limits assumed): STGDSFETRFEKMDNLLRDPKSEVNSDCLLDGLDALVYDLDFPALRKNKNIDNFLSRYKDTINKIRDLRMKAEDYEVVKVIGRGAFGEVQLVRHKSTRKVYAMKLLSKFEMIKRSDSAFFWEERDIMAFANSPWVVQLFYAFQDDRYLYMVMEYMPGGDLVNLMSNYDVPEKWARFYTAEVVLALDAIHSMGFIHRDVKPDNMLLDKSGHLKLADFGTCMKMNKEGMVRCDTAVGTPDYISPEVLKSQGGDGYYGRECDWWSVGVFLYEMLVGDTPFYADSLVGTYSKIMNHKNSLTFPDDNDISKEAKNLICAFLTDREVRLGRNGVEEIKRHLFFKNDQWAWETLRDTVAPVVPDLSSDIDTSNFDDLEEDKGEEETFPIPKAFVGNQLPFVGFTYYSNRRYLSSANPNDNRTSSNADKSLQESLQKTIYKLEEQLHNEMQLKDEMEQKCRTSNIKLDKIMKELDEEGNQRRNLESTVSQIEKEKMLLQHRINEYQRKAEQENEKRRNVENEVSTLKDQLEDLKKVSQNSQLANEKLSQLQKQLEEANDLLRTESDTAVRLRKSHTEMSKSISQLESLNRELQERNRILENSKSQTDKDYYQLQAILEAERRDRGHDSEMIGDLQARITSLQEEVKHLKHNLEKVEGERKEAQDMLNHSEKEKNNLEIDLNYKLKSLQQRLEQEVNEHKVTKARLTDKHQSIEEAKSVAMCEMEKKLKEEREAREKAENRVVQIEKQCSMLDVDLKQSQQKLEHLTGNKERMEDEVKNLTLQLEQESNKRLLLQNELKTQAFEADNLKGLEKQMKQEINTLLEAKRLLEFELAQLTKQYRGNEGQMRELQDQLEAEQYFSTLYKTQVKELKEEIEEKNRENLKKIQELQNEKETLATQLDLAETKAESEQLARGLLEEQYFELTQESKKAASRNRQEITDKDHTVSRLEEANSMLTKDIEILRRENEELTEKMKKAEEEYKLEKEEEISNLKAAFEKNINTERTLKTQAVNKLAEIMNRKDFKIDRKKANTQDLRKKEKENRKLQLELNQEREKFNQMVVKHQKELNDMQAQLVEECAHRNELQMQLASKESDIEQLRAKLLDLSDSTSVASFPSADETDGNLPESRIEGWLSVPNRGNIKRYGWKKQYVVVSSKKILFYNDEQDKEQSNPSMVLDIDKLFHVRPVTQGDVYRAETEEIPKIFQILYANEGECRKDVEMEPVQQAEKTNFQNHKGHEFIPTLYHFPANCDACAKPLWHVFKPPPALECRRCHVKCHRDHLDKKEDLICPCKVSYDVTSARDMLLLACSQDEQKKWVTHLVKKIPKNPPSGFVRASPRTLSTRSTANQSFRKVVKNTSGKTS
Serine/threonine-protein kinase pim-1 (Homo sapiens), sequence (P11309 whole entry, looked up): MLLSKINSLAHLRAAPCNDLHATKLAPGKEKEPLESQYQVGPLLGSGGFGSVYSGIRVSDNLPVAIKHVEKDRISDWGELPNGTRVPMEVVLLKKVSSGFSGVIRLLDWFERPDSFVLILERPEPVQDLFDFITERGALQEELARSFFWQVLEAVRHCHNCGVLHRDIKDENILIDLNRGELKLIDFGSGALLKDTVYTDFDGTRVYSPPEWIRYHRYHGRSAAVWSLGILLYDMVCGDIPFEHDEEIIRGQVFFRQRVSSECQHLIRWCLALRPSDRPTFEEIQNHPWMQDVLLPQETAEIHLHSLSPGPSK
Mitogen-activated protein kinase kinase kinase 13 (Homo sapiens), sequence (O43283 whole entry): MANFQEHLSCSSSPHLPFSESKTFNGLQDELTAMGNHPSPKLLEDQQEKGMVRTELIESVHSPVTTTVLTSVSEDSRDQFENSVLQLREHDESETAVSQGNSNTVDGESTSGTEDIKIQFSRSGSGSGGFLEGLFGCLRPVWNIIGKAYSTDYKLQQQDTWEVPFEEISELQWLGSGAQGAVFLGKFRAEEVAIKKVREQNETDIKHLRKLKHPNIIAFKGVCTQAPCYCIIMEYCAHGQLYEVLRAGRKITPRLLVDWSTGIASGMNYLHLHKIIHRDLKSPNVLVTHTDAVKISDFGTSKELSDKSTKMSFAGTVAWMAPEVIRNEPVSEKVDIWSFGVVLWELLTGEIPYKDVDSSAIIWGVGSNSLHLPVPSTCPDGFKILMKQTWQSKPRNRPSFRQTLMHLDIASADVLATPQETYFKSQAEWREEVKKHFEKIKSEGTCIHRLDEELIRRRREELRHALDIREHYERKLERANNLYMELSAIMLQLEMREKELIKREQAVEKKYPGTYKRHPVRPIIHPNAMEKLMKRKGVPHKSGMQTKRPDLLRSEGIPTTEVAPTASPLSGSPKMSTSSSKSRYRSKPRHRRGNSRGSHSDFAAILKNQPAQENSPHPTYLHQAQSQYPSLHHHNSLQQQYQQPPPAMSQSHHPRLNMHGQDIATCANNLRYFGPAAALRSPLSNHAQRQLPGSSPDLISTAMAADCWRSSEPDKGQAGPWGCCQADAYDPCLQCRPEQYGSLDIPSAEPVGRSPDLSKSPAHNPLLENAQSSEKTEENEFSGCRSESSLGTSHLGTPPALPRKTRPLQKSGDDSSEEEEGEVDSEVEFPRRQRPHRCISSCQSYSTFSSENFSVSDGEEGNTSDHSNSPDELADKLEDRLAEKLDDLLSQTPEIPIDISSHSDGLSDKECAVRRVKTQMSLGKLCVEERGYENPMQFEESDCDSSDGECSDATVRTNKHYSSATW
Calcium/calmodulin-dependent protein kinase type 1B (Homo sapiens), sequence (Q6P2M8 whole entry): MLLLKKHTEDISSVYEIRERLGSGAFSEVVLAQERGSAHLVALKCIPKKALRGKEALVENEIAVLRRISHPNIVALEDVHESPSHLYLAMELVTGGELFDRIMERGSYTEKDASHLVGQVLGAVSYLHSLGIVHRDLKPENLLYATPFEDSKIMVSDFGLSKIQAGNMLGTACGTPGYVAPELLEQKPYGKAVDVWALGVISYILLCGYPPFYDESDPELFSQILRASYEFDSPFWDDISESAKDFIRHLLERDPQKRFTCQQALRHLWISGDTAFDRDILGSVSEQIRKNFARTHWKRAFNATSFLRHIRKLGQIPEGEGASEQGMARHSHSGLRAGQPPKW

C[C@H](NC(=O)c1cnc2n1[C@](C)(Cc1ccc(C#N)cc1)C(=O)N2c1cc(Cl)c(F)c(Cl)c1)C(=O)NC1(c2ccccn2)CC1 [BI 1950]
inactive: residual activity [1] 77% | residual activity [2] 100% | residual activity [3] 94% | residual activity [4] 60% | residual activity [5] 100% | residual activity [6] 100% | inhibition [7] 1.26% | residual activity [8] 100% | residual activity [9] 81% | residual activity [10] 100% | residual activity [11] 100% | residual activity [12] 100% | residual activity [13] 98% | residual activity [14] 92% | residual activity [15] 100% | residual activity [16] 92% | residual activity [17] 84% | residual activity [18] 100% | residual activity [19] 100% | inhibition [20] -4.17% | inhibition [21] 12% | residual activity [22] 100% | residual activity [23] 100% | residual activity [24] 92% | residual activity [25] 100% | residual activity [26] 100% | residual activity [27] 100% | residual activity [28] 75% | residual activity [29] 100% | residual activity [30] 59% | residual activity [31] 100% | residual activity [32] 97% | residual activity [33] 100% | residual activity [34] 83% | residual activity [35] 100% | residual activity [36] 79% | residual activity [37] 100% | residual activity [38] 100% | residual activity [39] 100% | residual activity [40] 100% | residual activity [41] 100% | residual activity [42] 80% | residual activity [43] 100% | inhibition [44] 14%

C[C@@]1(Cc2ccc(C#N)cc2)C(=O)N(c2cc(Cl)cc(Cl)c2)c2ncc(C(=O)NC3(c4nc(C5CCC5)no4)CC3)n21 [BI 9446]
inactive: residual activity [1] 91% | residual activity [2] 100% | residual activity [3] 84% | residual activity [4] 100% | residual activity [5] 100% | residual activity [6] 100% | inhibition [7] 18.6% | residual activity [8] 92% | residual activity [9] 100% | residual activity [10] 100% | residual activity [11] 100% | residual activity [12] 100% | residual activity [13] 100% | residual activity [14] 100% | residual activity [15] 100% | residual activity [16] 100% | residual activity [17] 92% | residual activity [18] 100% | residual activity [19] 100% | inhibition [20] -8.68% | inhibition [21] 22.4% | residual activity [22] 100% | residual activity [23] 100% | residual activity [24] 100% | residual activity [25] 100% | residual activity [26] 90% | residual activity [27] 100% | residual activity [28] 100% | residual activity [29] 90% | residual activity [30] 97% | residual activity [31] 100% | residual activity [32] 94% | residual activity [33] 100% | residual activity [34] 65% | residual activity [35] 100% | residual activity [36] 76% | residual activity [37] 100% | residual activity [38] 100% | residual activity [39] 100% | residual activity [40] 100% | residual activity [41] 100% | residual activity [42] 100% | residual activity [43] 100% | inhibition [44] 7.21%
